Source: patent US9944602B2, “Piperidinone herbicides” (E. I. DU PONT DE NEMOURS AND COMPANY, priority 2014, dated 2018)

Columns and labels:
Assay type in all cases: in vivo
[1] = test system: barnyardgrass (Echinochloa crus-galli); assay: Test A preemergence barnyardgrass; settings: 0 to 100 scale, 0 no effect, 100 complete control
Description: (§1) Seeds of plant species selected from barnyardgrass (Echinochloa crus-galli), kochia (Kochia scoparia), ragweed (common ragweed, Ambrosia elatior), ryegrass, Italian (Italian ryegrass, Lolium multiflorum), crabgrass, large (large crabgrass, Digitaria sanguinalis), foxtail, giant (giant foxtail, Setaria faberii), morningglory (Ipomoea spp.), pigweed (Amaranthus retroflexus), velvetleaf (Abutilon theophrasti), wheat (Triticum aestivum), and corn (Zea mays) were planted into a blend of loam soil and sand and treated preemergence with a directed soil spray using test chemicals formulated in a non-phytotoxic solvent mixture which included a surfactant.
(§2) At the same time, plants selected from these crop and weed species and also blackgrass (Alopecurus myosuroides), and galium (catchweed bedstraw, Galium aparine) were planted in pots containing the same blend of loam soil and sand and treated with postemergence applications of test chemicals formulated in the same manner. Plants ranged in height from 2 to 10 cm and were in the one- to two-leaf stage for the postemergence treatment. Treated plants and untreated controls were maintained in a greenhouse for approximately 10 d, after which time all treated plants were compared to untreated controls and visually evaluated for injury. Plant response ratings, summarized in Table A, are based on a 0 to 100 scale where 0 is no effect and 100 is complete control. A dash (-) response means no test result.

[2] = test system: kochia (Kochia scoparia); assay: Test A preemergence kochia; settings: 0 to 100 scale, 0 no effect, 100 complete control
Description: as §1, §2

[3] = test system: ragweed (common ragweed, Ambrosia elatior); assay: Test A preemergence ragweed; settings: 0 to 100 scale, 0 no effect, 100 complete control
Description: as §1, §2

[4] = test system: ryegrass, Italian (Italian ryegrass, Lolium multiflorum); assay: Test A preemergence ryegrass, Italian; settings: 0 to 100 scale, 0 no effect, 100 complete control
Description: as §1, §2

[5] = test system: foxtail, giant (giant foxtail, Setaria faberii); assay: Test A preemergence foxtail, giant; settings: 0 to 100 scale, 0 no effect, 100 complete control
Description: as §1, §2

[6] = test system: pigweed (Amaranthus retroflexus); assay: Test A preemergence pigweed; settings: 0 to 100 scale, 0 no effect, 100 complete control
Description: as §1, §2

[7] = test system: barnyardgrass (Echinochloa crus-galli); assay: Test A postemergence barnyardgrass; settings: 0 to 100 scale, 0 is no effect, 100 is complete control
Description: as §1, §2

[8] = test system: kochia (Kochia scoparia); assay: Test A postemergence kochia; settings: 0 to 100 scale, 0 is no effect, 100 is complete control
Description: as §1, §2

[9] = test system: ragweed (common ragweed, Ambrosia elatior); assay: Test A postemergence ragweed; settings: 0 to 100 scale, 0 is no effect, 100 is complete control
Description: as §1, §2

[10] = test system: ryegrass, Italian (Italian ryegrass, Lolium multiflorum); assay: Test A postemergence ryegrass, Italian; settings: 0 to 100 scale, 0 is no effect, 100 is complete control
Description: as §1, §2

[11] = test system: foxtail, giant (giant foxtail, Setaria faberii); assay: Test A postemergence foxtail, giant; settings: 0 to 100 scale, 0 is no effect, 100 is complete control
Description: as §1, §2

[12] = test system: pigweed (Amaranthus retroflexus); assay: Test A postemergence pigweed; settings: 0 to 100 scale, 0 is no effect, 100 is complete control
Description: as §1, §2

[13] = test system: wheat (Triticum aestivum); assay: Test A postemergence wheat; settings: 0 to 100 scale, 0 is no effect, 100 is complete control
Description: as §1, §2

[14] = test system: corn (Zea mays); assay: Test A postemergence corn; settings: 0 to 100 scale, 0 is no effect, 100 is complete control
Description: as §1, §2

[15] = test system: blackgrass (Alopecurus myosuroides); assay: Test A postemergence blackgrass; settings: 0 to 100 scale, 0 is no effect, 100 is complete control
Description: as §1, §2

[16] = test system: galium (catchweed bedstraw, Galium aparine); assay: Test A postemergence galium; settings: 0 to 100 scale, 0 is no effect, 100 is complete control
Description: as §1, §2

[17] = test system: rice (Oryza sativa); assay: Test B flooded paddy test rice; settings: Table B, Flood, scale 0 to 100
Description: (§3) Plant species in the flooded paddy test selected from rice (Oryza sativa), sedge, umbrella (small-flower umbrella sedge, Cyperus difformis), ducksalad (Heteranthera limosa), and barnyardgrass (Echinochloa crus-galli) were grown to the 2-leaf stage for testing. At the time of treatment, test pots were flooded to 3 cm above the soil surface, treated by application of test compounds directly to the paddy water, and then maintained at that water depth for the duration of the test. Treated plants and controls were maintained in a greenhouse for 13 to 15 d, after which time all species were compared to controls and visually evaluated. […] A dash (-) response means no test result.

[18] = test system: sedge, umbrella (small-flower umbrella sedge, Cyperus difformis); assay: Test B flooded paddy test sedge, umbrella; settings: Table B, Flood, scale 0 to 100
Description: as §3

[19] = test system: ducksalad (Heteranthera limosa); assay: Test B flooded paddy test ducksalad; settings: Table B, Flood, scale 0 to 100
Description: as §3

[20] = test system: barnyardgrass (Echinochloa crus-galli); assay: Test B flooded paddy test barnyardgrass; settings: Table B, Flood, scale 0 to 100
Description: as §3

SMILES | Barnyardgrass plant response rating ([1]; 125 g ai/ha) | Barnyardgrass plant response rating ([1]; 500 g ai/ha) | Kochia plant response rating ([2]; 125 g ai/ha) | Kochia plant response rating ([2]; 500 g ai/ha) | Ragweed plant response rating ([3]; 125 g ai/ha) | Ragweed plant response rating ([3]; 500 g ai/ha) | Ryegrass, Italian plant response rating ([4]; 125 g ai/ha) | Ryegrass, Italian plant response rating ([4]; 500 g ai/ha) | Foxtail, Giant plant response rating ([5]; 125 g ai/ha) | Foxtail, Giant plant response rating ([5]; 500 g ai/ha) | Pigweed plant response rating ([6]; 125 g ai/ha) | Pigweed plant response rating ([6]; 500 g ai/ha) | Plant response rating, Barnyardgrass ([7]; 125 g ai/ha) | Plant response rating, Barnyardgrass ([7]; 500 g ai/ha) | Plant response rating, Kochia ([8]; 125 g ai/ha) | Plant response rating, Kochia ([8]; 500 g ai/ha) | Plant response rating, Ragweed ([9]; 125 g ai/ha) | Plant response rating, Ragweed ([9]; 500 g ai/ha) | Plant response rating, Ryegrass, Italian ([10]; 125 g ai/ha) | Plant response rating, Ryegrass, Italian ([10]; 500 g ai/ha) | other results
O=C1NCCC(c2cccc(OC(F)(F)F)c2)C1C(=O)Nc1ccccc1C(F)(F)F (racemic) [Compound 38] | 30 | 80 | 0 | 0 | 0 | 0 | 0 | 0 | 50 | 80 | 0 | 0 | 50 | 70 | 0 | 0 | 0 | 0 | 0 | 0 | Plant response rating, Foxtail, Giant ([11]; 125 g ai/ha): 0; Plant response rating, Foxtail, Giant ([11]; 500 g ai/ha): 60; Plant response rating, Pigweed ([12]; 125 g ai/ha): 0; Plant response rating, Pigweed ([12]; 500 g ai/ha): 0; Plant response rating, Wheat ([13]; 125 g ai/ha): 0; Plant response rating, Wheat ([13]; 500 g ai/ha): 0; Plant response rating, Corn ([14]; 125 g ai/ha): 0; Plant response rating, Corn ([14]; 500 g ai/ha): 0; Plant response rating, Blackgrass ([15]; 125 g ai/ha): 0; Plant response rating, Blackgrass ([15]; 500 g ai/ha): 0; Plant response rating, Galium ([16]; 125 g ai/ha): 0; Plant response rating, Galium ([16]; 500 g ai/ha): 0; Plant response rating ([17]; 250 g ai/ha): 0; Plant response rating ([18]; 250 g ai/ha): 0; Plant response rating ([19]; 250 g ai/ha): 85; Plant response rating ([20]; 250 g ai/ha): 35
O=C1NCCC(c2cccc(OC(F)(F)F)c2)C1C(=O)Nc1cccc(F)c1F (racemic) [Compound 39] | 80 | 90 | 0 | 0 | 0 | 0 | 30 | 70 | 90 | 90 | 0 | 10 | 80 | 80 | 0 | 0 | 0 | 0 | 0 | 50 | Plant response rating, Foxtail, Giant ([11]; 125 g ai/ha): 70; Plant response rating, Foxtail, Giant ([11]; 500 g ai/ha): 90; Plant response rating, Pigweed ([12]; 125 g ai/ha): 0; Plant response rating, Pigweed ([12]; 500 g ai/ha): 0; Plant response rating, Wheat ([13]; 125 g ai/ha): 0; Plant response rating, Wheat ([13]; 500 g ai/ha): 30; Plant response rating, Corn ([14]; 125 g ai/ha): 0; Plant response rating, Corn ([14]; 500 g ai/ha): 50; Plant response rating, Blackgrass ([15]; 125 g ai/ha): 0; Plant response rating, Blackgrass ([15]; 500 g ai/ha): 60; Plant response rating, Galium ([16]; 125 g ai/ha): 0; Plant response rating, Galium ([16]; 500 g ai/ha): 0; Plant response rating ([17]; 250 g ai/ha): 0; Plant response rating ([18]; 250 g ai/ha): 0; Plant response rating ([19]; 250 g ai/ha): 100; Plant response rating ([20]; 250 g ai/ha): 65
O=C1NCCC(c2cccc(OC(F)F)c2)C1C(=O)Nc1ccc(F)c(F)c1F (racemic) [Compound 44] | 60 | 90 | 0 | 0 | 0 | 30 | 0 | 0 | 80 | 90 | 0 | 0 | 20 | 80 | 0 | 0 | 0 | 0 | 0 | 20 | Plant response rating, Foxtail, Giant ([11]; 125 g ai/ha): 30; Plant response rating, Foxtail, Giant ([11]; 500 g ai/ha): 80; Plant response rating, Pigweed ([12]; 125 g ai/ha): 0; Plant response rating, Pigweed ([12]; 500 g ai/ha): 0; Plant response rating, Wheat ([13]; 125 g ai/ha): 0; Plant response rating, Wheat ([13]; 500 g ai/ha): 0; Plant response rating, Corn ([14]; 125 g ai/ha): 0; Plant response rating, Corn ([14]; 500 g ai/ha): 0; Plant response rating, Blackgrass ([15]; 125 g ai/ha): 0; Plant response rating, Blackgrass ([15]; 500 g ai/ha): 20; Plant response rating, Galium ([16]; 125 g ai/ha): 0; Plant response rating, Galium ([16]; 500 g ai/ha): 20; Plant response rating ([17]; 500 g ai/ha): 0; Plant response rating ([18]; 500 g ai/ha): 0; Plant response rating ([19]; 500 g ai/ha): 85; Plant response rating ([20]; 500 g ai/ha): 60
O=C1NCCC(c2cccc(OC(F)F)c2)C1C(=O)Nc1ccccc1F (racemic) [Compound 45] | 20 | 70 | 0 | 0 | 0 | 0 | 0 | 0 | 40 | 80 | 0 | 0 | 0 | 60 | 0 | 0 | 0 | 0 | 0 | 0 | Plant response rating, Foxtail, Giant ([11]; 125 g ai/ha): 0; Plant response rating, Foxtail, Giant ([11]; 500 g ai/ha): 50; Plant response rating, Pigweed ([12]; 125 g ai/ha): 0; Plant response rating, Pigweed ([12]; 500 g ai/ha): 0; Plant response rating, Wheat ([13]; 125 g ai/ha): 0; Plant response rating, Wheat ([13]; 500 g ai/ha): 0; Plant response rating, Corn ([14]; 125 g ai/ha): 0; Plant response rating, Corn ([14]; 500 g ai/ha): 0; Plant response rating, Blackgrass ([15]; 125 g ai/ha): 0; Plant response rating, Blackgrass ([15]; 500 g ai/ha): 20; Plant response rating, Galium ([16]; 125 g ai/ha): 0; Plant response rating, Galium ([16]; 500 g ai/ha): 0; Plant response rating ([17]; 500 g ai/ha): 0; Plant response rating ([18]; 500 g ai/ha): 0; Plant response rating ([19]; 500 g ai/ha): 50; Plant response rating ([20]; 500 g ai/ha): 0
O=C1NCCC(c2cccc(OC(F)F)c2)C1C(=O)Nc1cccc(F)c1F (racemic) [Compound 46] | 50 | 90 | 0 | 0 | 0 | 0 | 0 | 20 | 90 | 90 | 0 | 0 | 60 | 90 | 0 | 0 | 0 | 0 | 0 | 0 | Plant response rating, Foxtail, Giant ([11]; 125 g ai/ha): 20; Plant response rating, Foxtail, Giant ([11]; 500 g ai/ha): 80; Plant response rating, Pigweed ([12]; 125 g ai/ha): 0; Plant response rating, Pigweed ([12]; 500 g ai/ha): 0; Plant response rating, Wheat ([13]; 125 g ai/ha): 0; Plant response rating, Wheat ([13]; 500 g ai/ha): 50; Plant response rating, Corn ([14]; 125 g ai/ha): 0; Plant response rating, Corn ([14]; 500 g ai/ha): 50; Plant response rating, Blackgrass ([15]; 125 g ai/ha): 0; Plant response rating, Blackgrass ([15]; 500 g ai/ha): 40; Plant response rating, Galium ([16]; 125 g ai/ha): 0; Plant response rating, Galium ([16]; 500 g ai/ha): 0; Plant response rating ([17]; 500 g ai/ha): 0; Plant response rating ([18]; 500 g ai/ha): 0; Plant response rating ([19]; 500 g ai/ha): 100; Plant response rating ([20]; 500 g ai/ha): 65
